Experimental data: patent US5789188A, “Tetracycline-efflux pump inhibitor screening methods” (priority 1996, dated 1998)
In brackets after ≈: the same amount, converted by molar mass. Where two headings read alike, the source gives them in different places.

Experiments:
[1] = tested on: strain MC1061 with plasmid pGG58; assay: microbe, parasite or virus in culture; conditions: Escherichia coli, read-out: tetracycline resistance
[2] = tested on: strain KB3ind; assay: Tetracycline liquid assay (β-galactosidase, Miller Units); format: cell-based, E. coli; conditions: Escherichia coli
Procedure: (§1) Alternatively, a liquid assay is also used. Cells are grown in LB (pH 7.5), and tetracycline-containing samples are added to aliquots when the density of the culture is 0.1 OD units. After 3-4 generations of the cells, each aliquot is measured for β-galactosidase activity as described (10, 12) and Miller Units (12) are determined. […] For both the plate and liquid assays, this strain is more sensitive than a previously reported screening organism (11).

[3] = tested on: strain KB3ind; format: cell-based, E. coli; conditions: strain KB3ind; plate assay (plate or liquid assay)
Procedure: (§2) To detect tetracyclines, a plate assay is developed that is similar to one described previously (11). Cells are grown in Luria Broth (adjusted with NaOH to pH 7.5) with 25 μg/ml of kanamycin to a cell density of 0.5 absorbance units (600 nm). A 25 ml sample of the culture is harvested by centrifugation and resuspended in 1 ml of broth. The cells are mixed with 25 ml of soft agar (1%, wt/vol) and poured onto 100 ml of LB (pH 7.5)+ kanamycin, within a 22 cm^2 NUNC plate (Corning). Samples are applied by spotting from 2 to 15 μl, or by applying a disc impregnated with a compound, and the plate is incubated for 3-4 hours at 37° C. The plates are overlaid with a solution containing 13.5 mg of 6-bromo-2-naphthyl-β-D-galactopyranoside side and 86.5 mg of fast blue RR (Sigma) dissolved in 2 ml of dimethylsulfoxide, to which 25 ml of soft agar is added. β-Galactosidase is detected by the presence of a purple spot.

[4] = tested on: tetracycline efflux pump (strain KB4 or KB5); assay: Inhibition Assay, plate assay (agar with 5 ng/ml of tetracycline); format: cell-based, E. coli; conditions: strain KB4 or KB5, spotted on plate
Procedure: as §2
Two assays are developed for detecting inhibitors of the tetA gene product (using strain KB5), or the tetK gene product (using strain KB4). In the Inhibition Assay, cells of strain KB4 or KB5 are treated as described in the tetracycline screen above, except that the agar medium contains 5 ng/ml of tetracycline. Alternatively a Liquid Assay is also developed. Cells are first grown in LB (pH 7.5). Then cells are shifted to medium containing 5 ng/ml of tetracycline, and tetracycline-containing samples are added to aliquots. Cells are then incubated and assayed as described for the Tetracycline Assay. […] However, the intracellular concentration is reduced in tetracycline resistant strains due to the action of the efflux pump, so more tetracycline would be required in the medium to accumulate sufficient tetracycline inside the cell to induce. The Inhibition Assay is designed to detect compounds that cause β-galactosidase induction in the presence of sub-inducing levels of tetracycline for a resistant strain.

[5] = tested on: strains containing pCB258; assay: microbe, parasite or virus in culture; conditions: Escherichia coli
[6] = tested on: E. coli MC1061 containing pGG57; assay: microbe, parasite or virus in culture; format: cell-based; conditions: Escherichia coli
Procedure: (§3) E. coli MC1061 containing either pGG57, pCBSal or pGG75 were used to determine the MIC (LD 90) for tetracycline as well as six tetracycline analogs. […] MIC studies were performed in the presence of 0.01 mM IPTG for E. coli MC1061 containing pGG57. […] All of these MIC studies were done in duplicate.

[7] = tested on: strain KB5; assay: MIC of strain KB5; format: cell-based, E. coli; conditions: Escherichia coli
[8] = tested on: Tn10 derivative of KB3ind; assay: microbe, parasite or virus in culture; conditions: Escherichia coli, read-out: tetracycline resistance
[9] = tested on: strain KB4; assay: Induction in liquid culture, strain KB4; format: cell-based, E. coli; conditions: Escherichia coli, read-out: concentration for full induction of β-galactosidase
Procedure: (§4) Cells are added to tetracycline to the final concentration indicated as described in FIG. 7. The sensitive strain is the tetracycline screening organism KB3ind, which induces fully when grown in the presence of 5-10 ng/ml of tetracycline. In contrast, the strain containing the Tn10 element, conferring strong tetracycline resistance, induces fully when the concentration of tetracycline is above 1 μg/ml.
as §1

[10] = tested on: strain KB4; assay: microbe, parasite or virus in culture; conditions: Escherichia coli, read-out: tetracycline resistance conferred
[11] = tested on: E. coli MC1061 containing pGG75; assay: MIC (LD 90) of maximally induced tetC (plasmid pGG75); format: cell-based; conditions: Escherichia coli, read-out: MIC (LD 90) of Maximally Induced tetC, pGG75
Procedure: as §3

[12] = tested on: E. coli MC1061 containing pCBSal; assay: MIC (LD 90) of maximally induced tetA (plasmid pCBSal); format: cell-based; conditions: Escherichia coli, read-out: MIC (LD 90) of Maximally Induced tetA, pCBSal
Procedure: as §3

[13] = tested on: Tn10 derivative of strain KB3ind; assay: Induction in liquid culture, Tn10 strain; format: cell-based, E. coli; conditions: Escherichia coli, read-out: concentration for full induction of β-galactosidase, Tn10 strain, liquid culture
Procedure: as §4, §1

CN(C)C1C(=O)C(C(N)=O)=C(O)C2(O)C(=O)C3=C(O)c4c(O)cccc4C(C)(O)C3CC12 (centres unmarked) [Tetracycline]
MIC [1]: 15 µg/mL (≈ 33.8 µM)
EC (full induction) ([2]; liquid culture, read-out: concentration for full induction of β-galactosidase): 0.005 to 0.01 µg/mL
minimal effective concentration ([2]; read-out: lowest concentration detected in liquid assay): 0.0001 µg/mL
response in the Tetracycline Assay (β-galactosidase induction) [3]: capable of detecting
Tetracycline Detection, amount detected in Inhibition plate assay [4]: ≥ 1 ng
Tetracycline Detection, amount detected in Inhibition plate assay ([4]; listed as tetracycline): 1 ng
MIC ([5]; PCB258): 50 µg/mL (≈ 113 µM)
MIC ([5]; PCB258, read-out: tetracycline resistance conferred): 40 µg/mL (≈ 90 µM)
MIC ([6]; read-out: MIC (LD 90) of Maximally Induced tetK, pGG57): 125 µg/mL (≈ 281 µM)
MIC ([6]; read-out: tetracycline resistance conferred): 25 µg/mL (≈ 56.3 µM)
MIC [7]: ~10 µg/mL
MIC [8]: > 100 µg/mL
EC (full induction) [9]: 0.03 µg/mL
MIC [10]: < 10 µg/mL
MIC [11]: 100 µg/mL (≈ 225 µM)
MIC [12]: 150 µg/mL (≈ 338 µM)
EC (full induction) [13]: > 1 µg/mL
